Values of other authors as cited in PMC2874326 (Bioconjugate chemistry, 2010).

Test system: cells
Settings: relative to Tat and unmodified poly-arginine cell penetrating peptides

C14-βAla-(Arg)7-Cys(SH)-NH2 [MPAP]
enhancement of peptide entry into cells by myristoylation: several-fold
